{"source": "patent US4284620A", "about": "“N-(2-Hydroxyethyl)-2,4,6-triiodo-3,5-bis-(2-keto-L-gulonamido)benzamide and radiological compositions containing same” (Mallinckrodt, Inc., priority 1979, dated 1981)", "key": {"[1]": {"assay": "Stability in aqueous solution by tlc and lc analysis", "format": "physicochemical", "procedure": "(§1) Nmr data are consistent with the assigned structure IX. The compound softens with darkening at 233°-238° and decomposes above 240°."}, "Solubility in water": {"assay": "Solubility in water", "format": "physicochemical", "procedure": "as §1\nElemental analysis; Calcd for C21 H26 I3 N3 O14 (after correction for 3.58% H2 O): C, 26.29; H, 3.13; I, 39.67; N, 4.38; Found: C, 26.20; H, 3.12; N, 4.09; I, not determined."}, "dogs": {"system": "dogs", "assay": "Acute Intracisternal Neurotoxicity in Dogs", "settings": "dog, in vivo", "procedure": "(§2) Adult dogs of either sex were employed for this procedure and were briefly anesthetized with thiopentol sodium during the injection of a solution of the PRODUCT. The compound was administered into cerebrospinal fluid at the cisterna magna at varying concentrations but at a constant 0.5 ml/kg volume dose. Animals were thereafter observed for neurotoxicity with the following results: […]"}, "[2]": {"assay": "Acute Intracisternal Neurotoxicity in Dogs", "settings": "dog, in vivo; dogs, intracisternal, 244 mg I/kg; read-out: Respiratory arrest (death)", "procedure": "as §2"}, "subarachnoid space": {"system": "subarachnoid space", "assay": "Radiographic visualization in rat after intracisternal injection", "format": "in vivo", "settings": "175 mg I/kg (37% I solution) intracisternally, 10 seconds after administration", "procedure": "A pentobarbital-anesthetized rat (233 gm) received 175 mg I/kg (37% I solution) of the compound intracisternally."}, "Sprague Dawley rats": {"system": "Sprague Dawley rats", "assay": "Acute Intracisternal Toxicity in Rats", "settings": "rats, intracisternal, 400 mg I/ml, two day observation; 95% confidence limits 462-655", "source_text": "(§3) The following pharmacological studies were run on the N-(2-hydroxyethyl)-2,4,6-triiodo-3,5-bis-(2-keto-L-gulonamido)benzamide prepared according to Method B (PRODUCT).\n(§4) A variation of the technique described by Melartin et al. (Invest. Radiol. 5: 13-21, 1970) was utilized to evaluate lethal effects of a solution of the PRODUCT after injection into cerebrospinal fluid at the cisterna magna. Young adult male and female Sprague Dawley rats were used. After dosing, the animals were housed individually and observed for immediate reactions and periodically for a two day observation period."}, "in vivo [3]": {"assay": "in vivo", "settings": "rat, in vivo", "source_text": "as §3, §4"}, "Swiss mice [4]": {"system": "Swiss mice", "assay": "Acute Intracerebral Toxicity in Mice", "settings": "mice, intracerebral, 350-450 mg I/ml, seven day observation; 95% confidence limits 560-4806", "source_text": "as §3\n(§5) Employing a slightly modified version of the technique developed by Haley and McCormick (Brit. J. Pharmacol. 12: 12-15, 1957), young adult male and female Swiss mice received injections of a solution of the PRODUCT directly into lateral ventricles and brain tissue."}, "in vivo [5]": {"assay": "in vivo", "settings": "mouse, in vivo", "source_text": "as §3, §5"}, "Swiss mice [6]": {"system": "Swiss mice", "assay": "Acute Intravenous Toxicity in Mice", "settings": "mice, intravenous, 400 mg I/ml, 1 ml/min, seven day observation; 95% confidence limits 16,499-20,075", "procedure": "as §3\n(§6) A solution of the PRODUCT was injected into the lateral tail vein of yound adult male and female Swiss mice at a rate of 1 ml/min."}, "in vivo [7]": {"assay": "in vivo", "settings": "mouse, in vivo, iv", "procedure": "as §3, §6"}, "[8]": {"system": "vascular and urinary systems", "assay": "Radiographic visualization in mouse after intravenous injection", "format": "in vivo", "settings": "I.V.", "procedure": "A female mouse (19 g) was anesthetized with sodium pentobarbital (60 mg/kg, i/p.)."}}, "note": "Where two headings read alike, the source gives them in different places."}
{"smiles": "O=C(Nc1c(I)c(NC(=O)C(=O)[C@@H](O)[C@H](O)[C@@H](O)CO)c(I)c(C(=O)NCCO)c1I)C(=O)[C@@H](O)[C@H](O)[C@@H](O)CO", "note": "[IX, N-(2-Hydroxyethyl)-2,4,6-triiodo-3,5-bis-(2-keto-L-gulonamido)benzamide]", "values": [{"measurement": "stable in aqueous solution", "setting": "[1]", "value": "stable in aqueous solution"}, {"measurement": "solubility", "setting": "Solubility in water; Method A product, read-out: highly water soluble", "value": "≥ 1000", "unit": "mg/mL"}, {"measurement": "solubility", "setting": "Solubility in water; Method B product, read-out: solubility", "value": 1000, "unit": "mg/mL"}, {"measurement": "Minimum Convulsion Dose", "setting": "dogs", "value": "> 244", "unit": "mg I/kg"}, {"measurement": "mortality", "setting": "[2]", "value": 50, "unit": "%"}, {"measurement": "visualization of the subarachnoid space in the upper cervical, cisternal and basal cistern regions", "setting": "subarachnoid space", "value": "good visualization of the subarachnoid space"}, {"measurement": "LD50", "setting": "Sprague Dawley rats", "value": 550, "unit": "mg I/kg"}, {"measurement": "LD50 at 48 h", "setting": "in vivo [3]", "value": 1340, "unit": "mg/kg"}, {"measurement": "LD50", "setting": "Swiss mice [4]", "value": "1,640 mg I/kg"}, {"measurement": "LD50 at 168 h", "setting": "in vivo [5]", "value": 3980, "unit": "mg/kg"}, {"measurement": "LD50", "setting": "Swiss mice [6]", "value": "18,200 mg I/kg"}, {"measurement": "LD50 at 168 h", "setting": "in vivo [7]", "value": 44200, "unit": "mg/kg"}, {"measurement": "visualization of the vascular system, whole body left lateral radiograph", "setting": "[8]; female mouse, 10,000 mg I/kg (37% I solution), 5 seconds after administration", "value": "good visualization of the vascular system"}, {"measurement": "images of the vascular system, posteroanterior radiograph", "setting": "[8]; mouse, 30 seconds after contrast administration", "value": "good images of the vascular"}, {"measurement": "images of the urinary system, posteroanterior radiograph", "setting": "[8]; mouse, 5 minutes after contrast administration", "value": "good images of the vascular and urinary systems"}]}
